From patent US20250387388A1, “COMPOUND AS TRK INHIBITOR AND/OR RET INHIBITOR AND USE THEREOF” (Medinno Pharmaceutical Technology (Zhuhai) Co., Ltd., priority 2022, published 2025)

Legend:
[1] = system: acne model in rabbits; assay: Acne model in rabbits (coal tar + Propionibacterium acnes); format: in vivo, New Zealand white rabbits; details: for Rabbit ear weight: twice per day, topical, 2 weeks; for Serum DHT level / Serum IL-1α level: vs. model (vehicle) group; for Effect on inflammatory factors and acne (conclusion): rabbit, in vivo
Procedure: Modeling: Rabbits were acclimated for 7 days. On the right inner ear canal exit of the rabbits, a 2 cm×2 cm area was treated with 2% coal tar solution once a day, 0.5-1 mL each time, for 26 consecutive days. […] On the 8th day, Propionibacterium acnes was injected intradermally at 3-4 sites on the rabbit ears, 50 μl per rabbit, injected every other day for a total of 5 times. Treatment was started randomly on the 9th day after the last injection.
Rabbits were treated according to their groups. The blank group received no treatment. […] The model group received an equal amount of vehicle treatment, with the same application method and duration as the test drug groups.
Twenty-four hours after the last administration, a 2.8 cm punch was used to prepare ear samples at the application site, and their weight was measured. The ears from the modeling site were fixed with 4% paraformaldehyde, and consecutive sections (3 slices) were taken from the same location for HE staining and histopathological analysis. At the same time, the area of 3 hair follicles and the diameter of 3 sebaceous glands were measured to calculate the average values. Blood was drawn from the heart and centrifuged to obtain serum, and the levels of interleukin-1α (IL-1α), interleukin-6 (IL-6), and dihydrotestosterone (DHT) in serum were determined according to the ELISA kit instructions.
Tissue samples from animal ears were excised, fixed in 4% paraformaldehyde, dehydrated, embedded in paraffin, and sectioned and HE stained for observation of histopathological morphology changes. The tissue samples were fixed in 4% paraformaldehyde at normal temperature and the taken ears tissue was rinsed with running water for several hours, dehydrated through a series of ethanol solutions (70%, 80%, 90%), and then treated with a mixture of pure alcohol and xylene for 15 minutes, followed by xylene I for 15 minutes and xylene II for 15 minutes (until transparent). The tissue was then placed in a mixture of xylene and paraffin at a volume ratio of 1:1 for 15 minutes, followed by immersion with paraffin I and paraffin II each for 50-60 minutes. The tissue was embedded in paraffin and sectioned, and the sections were baked, dewaxed and hydrated in distilled water. The resulting sections were then stained in hematoxylin solution for 3 minutes, differentiated in a hydrochloric acid alcohol solution for 15 seconds, slightly washed, blued in a return blue solution for 15 seconds, rinsed with running water, stained with eosin for 3 minutes, rinsed with running water, dehydrated, cleared, and mounted for microscopic examination.
A double-antibody one-step sandwich Enzyme-linked Immunosorbent Assay (ELISA) ket was used. A capture antibody for the mouse target indicators was pre-coated onto microplate wells, to which samples, standards, and HRP-labeled detection antibodies were added sequentially, followed by incubation and thorough washing. TMB substrate was added for color development, which turned into blue in the presence of peroxidase and then into yellow after acidification. The depth of color was positively correlated with the concentration of the target in the samples. The absorbance (OD450 value) was measured at a wavelength of 450 nm using the microplate reader, and the sample concentration was calculated.

[2] = system: diabetic foot animal model; assay: Diabetic foot animal model (high-fat diet mice, back wound); format: in vivo, C57BL/6 male mice
Text: Twenty 2-month-old normal wild-type C57BL/6 male mice were ordered from Jicai Pharmaceutical and divided into two groups of 10 each. One group was fed a standard diet (SD), and the other group was fed a 60% high-fat diet (HFD) to induce obesity. Both groups were fed under the same conditions for about 6 months. Additionally, five 2-month-old young male mice were ordered to perform subsequent wound modeling and comparison with the SD group (8 months old, 10 mice) and the HFD group (8 months old, 10 mice). Mice were anesthetized with isoflurane, and a razor was used to remove the back hair, exposing the back skin. A marker pen and ruler were used to draw a 1.0 cm×0.5 cm rectangular area on each side of the back. A sterilized surgical scissor was used to cut away the skin in this area without damaging the subcutaneous tissue. After the mice regained consciousness, they were carefully placed back in their cages. The animals were euthanized at specified time intervals after the injury, and the wound tissue was collected for subsequent experiments and analysis. After creating wounds on the left and right sides of the mouse's back, the mice were grouped and administered drugs as indicated in the table below (where Control represents a blank drug control with DMSO+vehicle). The 1228 gel (0.5% or 1%) was administered every 12 hours, with a dose of 50 mg each time. The wounds were photographed and weighed daily (every 24 hours) for 7 days, and then samples were collected at the 7th day. Specific operational details are described in the section “3. Sample Collection and Analysis” below. [table] After anesthesia, the mice were placed on an operation table with their backs extended, and high-definition photographs of the entire back and the local wound area of the mice were taken (including a ruler). […] The body weight of the mice was also measured to analyze the impact of the drug on systemic metabolism. On the seventh day of wound repair after modeling on the mouse's back, the mice were euthanized, and the wound tissue was collected for subsequent experiments and analysis, including tissue from the center of the wound and distal non-wounded control skin. The tissue was embedded in OCT and subjected to cryosectioning for subsequent HE or multiple staining analysis. Mouse skin tissue was placed in an embedding box filled with OCT (Tissue-Tek® O.C.T. Compound, Catalog #4583, Sakura Finetek USA Inc) and laid flat on dry ice to quick-freeze. Once the OCT was fully frozen, the embedding box was transferred to a −20° C. freezer for storage. Before sectioning, the cryostat was pre-cooled to −25° C. […] The flattened tissue sections were attached to glass slides and checked under a microscope for completeness. The sections were left to air-dry at room temperature for 2-3 hours before being stored in a −20° C. freezer. The sections were taken out of the −20° C. freezer and allowed to thaw at room temperature, and the condensation water was dried for 10-20 minutes until completely dry. The sections were then fixed with 500-1000 μL of frozen 4% paraformaldehyde (4% paraformaldehyde prepared by diluting 10 ml of 16% PFA—paraformaldehyde in 30 ml of frozen PBS and stored at 4° C.) for 10 minutes at room temperature. The sections were washed once with dH2O (single distilled water) (incubation<1 minute). After washing, hematoxylin solution was added, and the sections were incubated for 55-60 seconds, then quickly washed three times with running tap water until no blue dye was visible. Eosin solution was added next, and the sections were incubated for 25-30 seconds, then quickly washed three times with running tap water, followed by washing with 70% ethanol once. The sections were dehydrated in 100% ethanol for 5 minutes and then in xylene for 5 minutes. Finally, the sections were coverslipped with a neutral resin, taking care not to trap air bubbles when placing the coverslip with forceps. […]

[3] = molecular target: TRKA (Homo sapiens (Human), UniProt P04629); assay: Inhibitory activity on TRKA (ADP-Glo Kinase Assay)
Chain of TRKA (P04629 33-796 limits assumed): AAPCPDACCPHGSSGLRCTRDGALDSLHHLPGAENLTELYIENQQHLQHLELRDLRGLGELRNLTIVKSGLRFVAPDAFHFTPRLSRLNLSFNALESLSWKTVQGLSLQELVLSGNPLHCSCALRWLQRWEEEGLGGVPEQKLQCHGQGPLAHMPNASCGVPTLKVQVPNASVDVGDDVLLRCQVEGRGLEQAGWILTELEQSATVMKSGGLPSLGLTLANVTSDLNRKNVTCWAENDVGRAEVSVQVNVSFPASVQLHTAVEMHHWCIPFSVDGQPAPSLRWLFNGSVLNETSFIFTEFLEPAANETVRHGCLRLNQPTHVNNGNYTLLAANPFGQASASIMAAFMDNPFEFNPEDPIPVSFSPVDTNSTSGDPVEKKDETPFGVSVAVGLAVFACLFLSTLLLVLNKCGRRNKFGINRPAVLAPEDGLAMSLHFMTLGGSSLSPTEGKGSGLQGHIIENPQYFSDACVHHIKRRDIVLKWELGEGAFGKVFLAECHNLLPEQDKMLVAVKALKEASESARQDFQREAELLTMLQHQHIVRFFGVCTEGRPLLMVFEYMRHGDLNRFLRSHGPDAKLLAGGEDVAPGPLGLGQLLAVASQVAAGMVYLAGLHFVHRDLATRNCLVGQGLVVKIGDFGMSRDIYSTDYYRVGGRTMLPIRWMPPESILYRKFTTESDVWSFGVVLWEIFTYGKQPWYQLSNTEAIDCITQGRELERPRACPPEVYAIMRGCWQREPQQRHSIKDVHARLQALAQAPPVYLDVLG

[4] = molecular target: TRKB (Homo sapiens (Human), UniProt Q16620); assay: Inhibitory activity on TRKB (ADP-Glo Kinase Assay)
Chain of TRKB (Q16620 32-822): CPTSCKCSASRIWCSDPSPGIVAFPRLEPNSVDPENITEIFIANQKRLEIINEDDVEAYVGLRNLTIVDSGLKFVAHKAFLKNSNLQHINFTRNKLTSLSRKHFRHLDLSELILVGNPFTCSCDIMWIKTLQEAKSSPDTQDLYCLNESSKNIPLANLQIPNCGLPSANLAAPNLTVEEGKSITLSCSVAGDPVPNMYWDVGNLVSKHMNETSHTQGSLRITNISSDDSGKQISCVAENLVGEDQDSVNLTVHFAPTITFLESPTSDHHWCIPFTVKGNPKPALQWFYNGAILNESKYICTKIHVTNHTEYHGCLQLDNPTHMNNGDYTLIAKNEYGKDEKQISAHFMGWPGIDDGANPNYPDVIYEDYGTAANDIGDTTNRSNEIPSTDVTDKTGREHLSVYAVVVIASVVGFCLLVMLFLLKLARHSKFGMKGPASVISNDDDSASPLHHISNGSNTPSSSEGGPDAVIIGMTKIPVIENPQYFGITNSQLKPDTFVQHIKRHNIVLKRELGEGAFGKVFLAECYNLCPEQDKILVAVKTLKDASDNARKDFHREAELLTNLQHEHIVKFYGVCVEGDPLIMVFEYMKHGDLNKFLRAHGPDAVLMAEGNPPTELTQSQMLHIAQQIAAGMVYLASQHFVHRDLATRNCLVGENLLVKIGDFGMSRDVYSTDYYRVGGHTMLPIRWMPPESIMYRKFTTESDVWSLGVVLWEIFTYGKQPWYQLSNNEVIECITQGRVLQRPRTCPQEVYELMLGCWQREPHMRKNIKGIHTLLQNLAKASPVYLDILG

[5] = molecular target: TRKC (Homo sapiens (Human), UniProt Q16288); assay: Inhibitory activity on TRKC (ADP-Glo Kinase Assay)
Chain of TRKC (Q16288 32-839): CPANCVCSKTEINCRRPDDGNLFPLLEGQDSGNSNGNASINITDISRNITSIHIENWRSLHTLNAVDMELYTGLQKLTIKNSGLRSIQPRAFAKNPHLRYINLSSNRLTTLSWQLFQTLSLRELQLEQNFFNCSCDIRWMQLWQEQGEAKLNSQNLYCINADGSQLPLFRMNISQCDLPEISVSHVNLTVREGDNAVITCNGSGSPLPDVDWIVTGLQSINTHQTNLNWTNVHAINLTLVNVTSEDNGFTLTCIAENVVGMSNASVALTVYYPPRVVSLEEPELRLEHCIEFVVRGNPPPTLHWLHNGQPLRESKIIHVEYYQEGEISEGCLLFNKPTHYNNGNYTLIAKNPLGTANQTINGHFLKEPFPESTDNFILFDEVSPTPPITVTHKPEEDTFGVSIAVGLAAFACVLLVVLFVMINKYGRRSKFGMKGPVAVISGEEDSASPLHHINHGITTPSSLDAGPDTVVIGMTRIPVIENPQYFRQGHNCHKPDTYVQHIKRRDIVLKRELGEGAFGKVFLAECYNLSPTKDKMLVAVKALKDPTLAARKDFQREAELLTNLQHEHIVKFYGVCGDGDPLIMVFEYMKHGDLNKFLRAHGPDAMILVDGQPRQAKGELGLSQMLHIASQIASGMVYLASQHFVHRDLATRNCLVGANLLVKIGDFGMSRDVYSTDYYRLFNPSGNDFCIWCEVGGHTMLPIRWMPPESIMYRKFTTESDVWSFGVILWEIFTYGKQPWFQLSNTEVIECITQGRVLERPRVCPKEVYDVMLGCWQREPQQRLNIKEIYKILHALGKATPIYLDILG

Compound | Rabbit ear weight ([1]; 3 mg/kg each time) | Serum DHT level ([1]; 3 mg/kg) | Serum IL-1α level ([1]; 3 mg/kg) | Effect on inflammatory factors and acne (conclusion) [1] | Lipolysis in the diabetic foot model ([2]; conclusion / summary statement) | Myofibroblasts at the wound ([2]; conclusion / summary statement) | Wound healing ([2]; conclusion / summary statement) | IC50 [3] [nM] | IC50 [4] [nM] | IC50 [5] [nM] | Serum IL-1α, IL-6 and DHT levels ([1]; 1 mg/kg low-dose) | Hair follicle area ([1]; 3 mg/kg) | Ear tissue HE staining ([1]; 3 mg/kg medium-dose) | Hair follicle area ([1]; 9 mg/kg) | Rabbit ear weight ([1]; 9 mg/kg each time) | Serum DHT level ([1]; 9 mg/kg) | Serum IL-1α level ([1]; 9 mg/kg) | Epithelial healing (wound non-healing distance) ([2]; 1% MDI-1228 gel, HFD group) | Area of green lipid droplets in the wound center (Bodipy staining) ([2]; MDI-1228 gel 50 mg every 12 hours, 7 days) | Size of the adipocytes in the wound center (HE staining) ([2]; MDI-1228 gel 50 mg every 12 hours, 7 days, vs. control)
CCc1cc(O)c(F)cc1-c1ccc2c(-c3nc4c([nH]3)CN(C(=O)NCC(O)CCl)C4)n[nH]c2c1 (stereo not drawn) [MDI-1288] | reduced ear weight | significantly reduced | significantly reduced | reducing the expression of inflammatory factors and improving acne | can significantly promote lipolysis | significantly increase the proportion of myofibroblasts | effectively promote wound healing | 0.89 | 1.04 | 0.59 |  |  |  |  |  |  |  |  |  | 
CCc1cc(O)c(F)cc1-c1ccc2c(-c3nc4c([nH]3)CN(C(=O)N3CC[C@H](O)C3)C4)n[nH]c2c1 [MDI-1228, (S)-(2-(6-(2-ethyl-5-fluoro-4-hydroxyphenyl)-1H-indazol-3-yl)-4,6-dihydropyrrolo[3,4-d]imidazol-5-(1H)-yl)(3-hydroxylpyrrolidin-1-yl)ketone] | reduced ear weight | significantly reduced | significantly reduced | reducing the expression of inflammatory factors and improving acne |  |  |  | 1.82 | 1.77 | 0.6 | a trend of reduction in all three indicators | significantly reduced the enlargement of hair follicles | the best treatment effect | significantly reduced the enlargement of hair follicles | reduced ear weight | significantly reduced | significantly reduced | could effectively promote epithelial healing | significantly reduced | significantly reduced
